# Measured values taken from US20250333404A1, “DEUTERATED COMPOUNDS” (Neurocrine Biosciences, Inc., priority 2022, published 2025).
# Target: NaV1.6 (Homo sapiens (Human), UniProt Q9UQD0)
# Assay: Sodium influx assay (ANG2 dye), NaV1.6
# Assay type: cell-based
# Settings: Trex HEK293 cells, human α-subunit + β1-subunit; inactivated state; read-out: Flux NaV1.6 IC50
# Sequence of NaV1.6 (Q9UQD0 whole entry): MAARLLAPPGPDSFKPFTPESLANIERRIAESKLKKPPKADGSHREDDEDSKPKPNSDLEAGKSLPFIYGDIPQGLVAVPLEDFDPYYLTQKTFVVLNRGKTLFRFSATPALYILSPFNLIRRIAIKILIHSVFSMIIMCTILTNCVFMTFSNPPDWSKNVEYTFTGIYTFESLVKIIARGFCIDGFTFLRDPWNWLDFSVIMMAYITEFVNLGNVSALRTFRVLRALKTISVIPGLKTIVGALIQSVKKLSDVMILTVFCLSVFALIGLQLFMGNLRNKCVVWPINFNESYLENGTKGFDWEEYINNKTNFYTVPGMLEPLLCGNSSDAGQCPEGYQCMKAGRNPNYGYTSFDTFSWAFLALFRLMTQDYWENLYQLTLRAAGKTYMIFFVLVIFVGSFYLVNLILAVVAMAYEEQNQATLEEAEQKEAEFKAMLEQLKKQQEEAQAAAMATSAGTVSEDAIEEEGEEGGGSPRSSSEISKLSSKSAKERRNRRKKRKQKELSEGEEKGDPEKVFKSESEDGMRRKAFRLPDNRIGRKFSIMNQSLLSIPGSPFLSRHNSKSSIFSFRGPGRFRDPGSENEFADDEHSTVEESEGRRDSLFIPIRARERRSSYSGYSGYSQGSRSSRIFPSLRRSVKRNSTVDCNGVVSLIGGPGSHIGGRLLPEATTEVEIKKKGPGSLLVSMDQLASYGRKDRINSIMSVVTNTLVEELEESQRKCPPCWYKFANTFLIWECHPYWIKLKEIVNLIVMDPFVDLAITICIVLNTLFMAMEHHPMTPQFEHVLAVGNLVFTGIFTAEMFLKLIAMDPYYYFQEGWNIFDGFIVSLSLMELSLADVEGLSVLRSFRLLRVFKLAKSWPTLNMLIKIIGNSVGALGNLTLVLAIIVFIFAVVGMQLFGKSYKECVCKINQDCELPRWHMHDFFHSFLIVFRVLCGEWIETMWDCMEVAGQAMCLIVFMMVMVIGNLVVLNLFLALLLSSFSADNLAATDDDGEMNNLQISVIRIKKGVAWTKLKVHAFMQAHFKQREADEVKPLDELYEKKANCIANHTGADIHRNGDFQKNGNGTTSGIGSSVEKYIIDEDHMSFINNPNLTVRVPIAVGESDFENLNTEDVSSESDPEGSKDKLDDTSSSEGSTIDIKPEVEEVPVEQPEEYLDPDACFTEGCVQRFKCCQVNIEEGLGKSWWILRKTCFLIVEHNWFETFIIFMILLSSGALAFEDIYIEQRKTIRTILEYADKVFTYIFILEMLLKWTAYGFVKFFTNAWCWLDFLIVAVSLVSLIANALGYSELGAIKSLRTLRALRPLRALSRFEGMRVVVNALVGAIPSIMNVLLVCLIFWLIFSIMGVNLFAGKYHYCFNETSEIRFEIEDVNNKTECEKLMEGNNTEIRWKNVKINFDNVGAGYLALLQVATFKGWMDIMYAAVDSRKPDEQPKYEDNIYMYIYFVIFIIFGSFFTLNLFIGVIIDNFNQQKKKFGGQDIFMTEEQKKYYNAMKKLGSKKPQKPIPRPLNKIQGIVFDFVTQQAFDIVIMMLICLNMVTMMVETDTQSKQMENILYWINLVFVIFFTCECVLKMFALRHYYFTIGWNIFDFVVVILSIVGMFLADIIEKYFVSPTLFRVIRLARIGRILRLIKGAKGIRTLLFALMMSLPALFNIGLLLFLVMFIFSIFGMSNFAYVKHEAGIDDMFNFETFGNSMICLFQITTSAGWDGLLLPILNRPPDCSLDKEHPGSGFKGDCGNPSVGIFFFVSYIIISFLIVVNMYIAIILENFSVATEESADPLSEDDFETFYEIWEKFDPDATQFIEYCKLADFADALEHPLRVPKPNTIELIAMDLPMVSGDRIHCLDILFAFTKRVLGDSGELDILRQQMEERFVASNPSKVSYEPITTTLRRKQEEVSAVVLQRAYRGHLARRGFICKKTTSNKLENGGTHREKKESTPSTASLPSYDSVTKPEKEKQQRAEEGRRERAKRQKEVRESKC
# Sequence of NaV1.6 (Q07699 19-218 partner): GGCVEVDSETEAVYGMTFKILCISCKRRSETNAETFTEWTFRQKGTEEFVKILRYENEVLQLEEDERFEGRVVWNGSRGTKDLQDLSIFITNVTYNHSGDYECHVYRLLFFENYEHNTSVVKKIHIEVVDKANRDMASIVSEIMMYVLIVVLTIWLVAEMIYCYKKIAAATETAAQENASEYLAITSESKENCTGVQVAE
smiles,measurement,value
"Cc1cc(S(=O)(=O)Nc2cscn2)c(F)cc1N(C)[C@H]1CCN(Cc2ccccc2)C1 [Compound 1, (S)-4-((1-benzylpyrrolidin-3-yl)(methyl)amino)-2-fluoro-5-methyl-N-(thiazol-4-yl)benzenesulfonamide]",IC50,272 nM
